Experimental data reported in patent US11174267B2, “Spiroindolinones and therapeutic uses thereof” (The Regents of the University of California, priority 2015, dated 2021).
Like-named read-outs stand apart in the source and are kept apart here.

Experiments:
[1] = system: cdr1/CDR1 heterozygous mutant and cdr1/cdr1 deletion strain; assay: Azole-synergizer effect in cdr1 mutants; type: cell-based, Candida albicans; conditions: with FLC
Source text: Strains and growth condition. The wild-type Candida albicans strains used were SC5314 and CaSS1. Cdr1 heterozygous were from Merck Sharp & Dohme Corp. Double Barcoded (DBC) library of heterozygous Candida albicans mutants (version 2013A). Cdr1 deficient mutant was obtained by counterselection of the GRACE library strain on 5-Fluoroorotic Acid (5-FOA) containing plate. Clinical isolated resistant C. albicans were from Dr. David Rogers. Cryptococcus neoformans var. grubii H99 (ATCC 208821) and Candida glabrata BG2, a fluconazole-resistant clinical isolate, were used. Yeast strains were cultured at 30° C. in synthetic complete (SC) medium containing 2% glucose.
Manually Screening. Of the DBC library was carried out in 96-well flat bottom plates. Briefly, BDC library grown in YPD agar were transferred to SC medium in 96-well flat bottom plates with a 96-well pin tool and grown overnight at 30° C. Cell cultures were diluted 1:800 in fresh SC medium with or without compounds and incubated at 30° C. for 24 h. Cell growth was measured with Tecan GENios Plus microplate reader (Tecan, Switzerland).
Small number of outliers in the HIP profiling indicates few off-targets for the compound. To avoid missing genes due to the bias of PCR and sequencing, a manual screening of the DBC library with Compound 1 and FLC in 96 well plates was also carried out.

[2] = system: resistant clinical isolates of C. albicans; assay: Screen of resistant clinical isolates, single dose, broth microdilution (growth OD600); type: cell-based, Candida albicans; conditions: compound 25 3 μM + fluconazole 64 μg/mL, 16 h
Source text: (Flowers, S. A., et al. Eukaryotic Cell 2012, 11, 1289-1299.) The strains grow at dramatically different rates.

[3] = system: C. albicans strain HLY4123 and clinical isolates 26 and 45; assay: Checkerboard assay (MIC90, FIC index); type: cell-based, Candida albicans; conditions: for MIC90: Candida albicans; for FICI: Compound 25 + fluconazole
Description: Checkerboard assays were carried out using four 24-well plates. The results on each plate were normalized by duplication of one row and one column with a row and column on another plate. C. albicans was grown in SC medium overnight and then diluted to an effective OD600 of 0.0625. Serial ten-fold dilutions of the test compounds (150 mM) were prepared in DMSO in 1.5 mL Eppendorf tubes. […] Concentrations of compound in rows 1-11 varied from 300 μM to 0.0003 nM; the last row 12 contained no compound. […] The plates were incubated in a rotary shaker/incubator at 30° C. for 16 h. The contents of each well was resuspended with a micropipettor and a 20 μL aliquot was added to a polystyrene cuvette and diluted with 680 μL of deionized water. The suspension was triturated again immediately before measuring the absorbance at 600 nm. The MIC90 values were determined as the lowest concentrations of the drugs (alone or in combination) that inhibited fungal growth by 90% compared with that of the drug-free wells.
(§1) In all of the strains tested, the FIC index was below 0.5, fitting the classical definition of synergy.

[4] = Solubility limit in the checkerboard assay; type: physicochemical; conditions: checkerboard assay medium
Source text: as §1

For Cc1c(Cl)ccc2c1NC(=O)[C@]21N[C@H](Cc2ccccc2)[C@@H]2C(=O)N(c3ccc(F)cc3)C(=O)[C@@H]21 (racemic) [Compound 1, (±)-(3R,3′R,3a′R,6a'S)-3′-benzyl-6-chloro-5′-(4-fluorophenyl)-7-methyl-2′,3′,3a′,6a′-tetrahydro-4′H-spiro[indoline-3,1′-pyrrolo[3,4-c]pyrrole]-2,4′,6′(5′H)-trione], the “effect as azole-synergizer in cdr1 mutants” value [1] was “significantly enhanced in the cdr1/CDR1 heterozygous mutant but blocked in the cdr1/cdr1 deletion strain”.

For Cc1c(Cl)ccc2c1NC(=O)[C@@]21[C@H]2C(=O)N(c3ccccc3)C(=O)[C@H]2[C@H]2CN(C(=O)OCc3ccccc3)CCN21 (racemic) [Compound 25, (±)-benzyl (3R,3a′R,3b'S,9a'S)-6-chloro-7-methyl-1′,2,3′-trioxo-2′-phenyl-2′,3′,3a′,3b′,4′,6′,7′,9a′-octahydrospiro[indoline-3,9′-pyrrolo[3′,4′:3,4]pyrrolo[1,2-a]pyrazine]-5′(1′H)-carboxylate], the “Growth (OD600) +Cpd25 + Fluc” value ([2]; clinical isolate 15) was 2.64, the “Growth (OD600) +Cpd25 + Fluc” value ([2]; clinical isolate 16) was 0.43 and the “Growth (OD600) +Cpd25 + Fluc” value ([2]; clinical isolate 17) was 0.79. The “Growth (OD600) +Cpd25 + Fluc” value ([2]; clinical isolate 21) was 2.02, the “Growth (OD600) +Cpd25 + Fluc” value ([2]; clinical isolate 22) was 1.28 and the “Growth (OD600) +Cpd25 + Fluc” value ([2]; clinical isolate 23) was 0.60. For the same compound, the “Growth (OD600) +Cpd25 + Fluc” value ([2]; clinical isolate 25) was 1.59, the “Growth (OD600) +Cpd25 + Fluc” value ([2]; clinical isolate 26) was 0.83 and the “Growth (OD600) +Cpd25 + Fluc” value ([2]; clinical isolate 30) was 5.38. For the same compound, the “Growth (OD600) +Cpd25 + Fluc” value ([2]; clinical isolate 33) was 0.88, the “Growth (OD600) +Cpd25 + Fluc” value ([2]; clinical isolate 36) was 1.07 and the “Growth (OD600) +Cpd25 + Fluc” value ([2]; clinical isolate 41) was 6.52. The “Growth (OD600) +Cpd25 + Fluc” value ([2]; clinical isolate 45) was 1.03, the “Growth (OD600) +Cpd25 + Fluc” value ([2]; clinical isolate 49) was 11.29 and the MIC90 ([3]; read-out: MICcpd (+Flc) (MIC90), clinical isolate 26, with fluconazole) was 0.3 µM. It also gave an MIC90 ([3]; read-out: MICcpd (+Flc) (MIC90), clinical isolate 45, with fluconazole) of 0.03 µM, an MIC90 ([3]; read-out: MICcpd (+Flc) (MIC90), strain HLY4123, with fluconazole) of 0.03 µM and an MIC90 ([3]; read-out: MICcpd (MIC90), clinical isolate 26, compound alone) of over 30 µM. The MIC90 ([3]; read-out: MICcpd (MIC90), clinical isolate 45, compound alone) was over 30 µM, the MIC90 ([3]; read-out: MICcpd (MIC90), strain HLY4123, compound alone) was over 300 µM and the FIC index ([3]; all of the strains tested, with fluconazole) was “below 0.5”. The “toxicity of compound alone against the strains” value ([3]; alone, at the solubility limit, any of the strains) was “did not have measurable toxicity”, the FICI ([3]; clinical isolate 26) was 0.14 and the FICI ([3]; clinical isolate 45) was 0.13. The FICI ([3]; strain HLY4123) was 0.25 and the solubility [4] was 30 to 300 µM.
